Source: the supplement of paper PMC10307832

How the values were obtained:
Assay in all cases: relative viability (nuclei count vs DMSO), 5 days (fraction); higher = more cells survive
[1] = compound: NCC(=O)Nc1ccc(-n2nc(C(F)(F)F)cc2-c2ccc3c(ccc4ccccc43)c2)cc1 + NC(=O)Nc1cc(-c2cccc(F)c2)sc1C(=O)N[C@H]1CCCNC1 [AZD7762] (partner 0.2 µM)
Procedure, shortened: (§1)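 Lung cancer cell lines were pin-tool dosed in 1536-well plates on the day after seeding, with either a lone drug or a fixed anchor-drug dose plus five library-drug doses (not always all listed) in √10 steps. Nuclei were counted on 4× images after 5 days. Relative viability is the ratio of treated-well to vehicle-well nuclei counts, with each value a median of duplicate plates.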

[2] = compound: NCC(=O)Nc1ccc(-n2nc(C(F)(F)F)cc2-c2ccc3c(ccc4ccccc43)c2)cc1 + CCNC(=O)c1noc(-c2cc(C(C)C)c(O)cc2O)c1-c1ccc(CN2CCOCC2)cc1 [Luminespib] (partner 0.01 µM)
Procedure, shortened: as §1

[3] = compound: NCC(=O)Nc1ccc(-n2nc(C(F)(F)F)cc2-c2ccc3c(ccc4ccccc43)c2)cc1 + COc1cccc2cc(-c3nc([C@H]4CC[C@H](C(=O)O)CC4)n4ncnc(N)c34)[nH]c12 [OSI-027] (partner 0.5 µM)
Procedure, shortened: as §1

[4] = compound: NCC(=O)Nc1ccc(-n2nc(C(F)(F)F)cc2-c2ccc3c(ccc4ccccc43)c2)cc1 + CS(=O)(=O)CCNCc1ccc(-c2ccc3ncnc(Nc4ccc(OCc5cccc(F)c5)c(Cl)c4)c3c2)o1 [Lapatinib] (partner 2 µM)
Procedure, shortened: as §1

Cell Line	relative viability ([1]; first compound 0.02 µM)	relative viability ([1]; first compound 0.06325 µM)	relative viability ([1]; first compound 0.2 µM)	relative viability ([1]; first compound 0.6325 µM)	relative viability ([1]; first compound 2 µM)	relative viability ([2]; first compound 0.02 µM)	relative viability ([2]; first compound 0.06325 µM)	relative viability ([2]; first compound 0.2 µM)	relative viability ([2]; first compound 0.6325 µM)	relative viability ([2]; first compound 2 µM)	relative viability ([3]; first compound 0.02 µM)	relative viability ([3]; first compound 0.06325 µM)	relative viability ([3]; first compound 0.2 µM)	relative viability ([3]; first compound 0.6325 µM)	relative viability ([3]; first compound 2 µM)	relative viability ([4]; first compound 0.02 µM)	relative viability ([4]; first compound 0.06325 µM)	relative viability ([4]; first compound 0.2 µM)	relative viability ([4]; first compound 0.6325 µM)	relative viability ([4]; first compound 2 µM)
LC-2-ad	1.09	0.875	0.772	0.849	0.886	1.01	1.05	1.12	1.11	1.14	0.755	0.911	0.647	0.75	1.05	0.967	0.932	1.02	0.96	1.06
LCLC-97TM1	0.284	0.253	0.28	0.39	0.159	0.869	0.76	0.689	0.8	0.831	0.656	0.567	0.503	0.625	0.606	0.816	1.13	–	0.981	0.893
LK-2	0.459	0.47	0.402	0.493	0.381	0.173	0.195	0.217	0.173	0.208	0.182	0.207	0.21	0.246	0.174	0.966	1.06	0.884	1	0.874
LOU-NH91	0.799	0.783	0.784	0.804	0.795	0.334	0.38	0.314	0.339	0.352	0.752	0.737	0.711	0.716	0.735	0.848	0.678	0.781	0.797	0.767
LU99A	0.333	0.387	0.389	0.341	0.355	0.261	0.249	0.229	0.238	0.19	0.285	0.29	0.303	0.272	0.295	0.943	1.13	1.07	0.987	0.944
LXF-289	1.14	1.13	1.01	1.12	1.06	0.686	0.67	0.633	0.637	0.702	0.67	0.801	0.787	0.819	0.713	0.953	0.953	0.916	0.891	0.887
NCI-H23	0.191	0.249	0.219	0.274	0.277	–	0.217	0.216	0.222	0.234	0.576	0.664	0.809	0.608	0.531	1.18	0.96	1.12	1.12	0.955
NCI-H322M	0.569	0.711	0.578	0.636	0.681	0.919	0.946	0.895	0.917	0.855	0.532	0.536	0.556	0.546	0.566	0.617	0.62	0.681	0.561	0.558
NCI-H358	0.535	0.593	0.607	0.609	0.526	0.316	0.54	0.37	0.323	0.259	0.749	0.842	0.84	0.711	0.834	0.553	0.323	0.41	0.528	0.491
NCI-H460	0.773	0.684	0.633	0.623	0.643	0.032	0.0402	0.0319	0.0282	0.0345	0.583	0.642	0.696	0.587	0.675	0.965	0.956	0.991	0.845	0.576
NCI-H596	1.14	1.03	0.984	1.28	1.08	1.14	1.02	1.06	0.99	0.978	0.731	0.865	0.83	0.727	0.799	1.13	1.09	1.11	1.09	1.19
NCI-H647	0.384	0.39	0.524	0.431	0.527	0.26	0.151	0.146	0.181	0.252	0.494	0.681	0.67	0.573	0.773	1.2	1.07	1.21	0.953	0.631
NCI-H650	0.988	1.12	1.08	1.02	1.05	0.725	0.878	0.867	0.734	0.973	0.508	0.524	0.541	0.443	0.524	0.665	1.06	0.934	0.87	1.25
NCI-H727	0.531	0.53	0.58	0.696	0.599	0.325	0.352	0.322	0.32	0.401	0.533	0.504	0.579	0.694	0.737	1.02	0.968	0.655	0.917	0.9
NCI-H838	1.01	0.922	0.986	0.913	0.957	0.328	0.31	0.372	0.429	0.382	0.406	0.461	0.428	0.425	0.469	0.934	0.893	0.974	0.778	0.576
NCI-H1355	0.717	0.776	0.797	0.776	0.806	0.668	0.765	0.72	0.791	0.752	0.35	0.427	0.315	0.45	0.511	1	1.05	1.08	0.951	1.05
